# Reference: US7807676B2, “Diketo-Piperazine and Piperidine derivatives as antiviral agents” (priority 2006, dated 2010)
# pEC50: −log10 of the molar value.
# System: HIV-1 single-round infectious reporter virus
# Assay: Single-round infectious HIV-1 luciferase reporter virus infection of HeLa CD4 cells (antiviral EC50)
# Type: cell-based
# Details: Human immunodeficiency virus 1, HeLa, read-out: EC50 Group from Table 3
# Method in brief: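 Env-pseudotyped single-round HIV-1 reporter virus (env-deleted provirus with luciferase in place of nef, made in 293 cells) infected HeLa CD4 cells at MOI ~0.01 with compound present, up to 10 μM final. Luciferase luminescence read after 72 h at 37 °C; EC50 from four-parameter logistic fit of % inhibition over 10 concentrations.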
row,SMILES,pEC50
1,N#CCCCC(=O)c1cccnc1N1CCN(C(=O)C(=O)c2c[nH]c3c(-n4ccnn4)ncc(F)c23)CC1 [D-46],< 6.30
2,O=C(C(=O)N1CCN(c2nsnc2N2CCCC2)CC1)c1c[nH]c2c(-n3ccnn3)ncc(F)c12 [D-47],> 6.30
3,N#Cc1cccc(CC(=O)c2cccnc2N2CCN(C(=O)C(=O)c3c[nH]c4c(-n5ccnn5)ncc(F)c34)CC2)c1 [D-48],> 6.30
4,COc1cnc(-n2cnc(C)n2)c2[nH]cc(C(=O)C(=O)N3CCN(c4nccnc4OC(C)C)CC3)c12 [D-49],> 6.30
5,COc1cnc(-n2cnc(C)n2)c2[nH]cc(C(=O)C(=O)N3CCN(c4nn(C)c(=O)cc4-c4ccccc4)C[C@H]3C)c12 [D-50],< 6.30
6,COc1cnc(-n2cnc(C)n2)c2[nH]cc(C(=O)C(=O)N3CCN(c4ncccc4C(=O)NCCCN(C)C)CC3)c12 [D-51],< 6.30
7,"O=C(C(=O)N1CCN(c2nnnn2-c2ccccn2)CC1)c1c[nH]c2c(-n3ccnn3)ncc(F)c12 [E-1, 1-(4-fluoro-7-(1H-1,2,3-triazol-1-yl)-1H-pyrrolo[2,3-c]pyridinyl-3-yl)-2-(4-(1-(pyridin-2-yl)-1H-tetrazol-5-yl)piperazin-1-yl)ethane-1,2-dione]",> 6.30
8,COc1cnc(-n2cnc(C)n2)c2[nH]cc(C(=O)C(=O)N3CCN(c4nnnn4-c4ccccn4)CC3)c12 [E-2],> 6.30
9,O=C(C(=O)N1CCN(c2nnnn2-c2cccnc2)CC1)c1c[nH]c2c(-n3ccnn3)ncc(F)c12 [E-3],> 6.30
10,O=C(C(=O)N1CCN(c2nnnn2-c2nccs2)CC1)c1c[nH]c2c(-n3ccnn3)ncc(F)c12 [E-4],> 6.30
11,COc1cnc(-n2cnc(C)n2)c2[nH]cc(C(=O)C(=O)N3CCN(c4nnnn4-c4nccs4)CC3)c12 [E-5],> 6.30
12,O=C(C(=O)N1CCN(c2nnnn2-c2ncco2)CC1)c1c[nH]c2c(-n3ccnn3)ncc(F)c12 [E-6],> 6.30
13,COc1cnc(-n2cnc(C)n2)c2[nH]cc(C(=O)C(=O)N3CCN(c4nnnn4-c4ncco4)CC3)c12 [E-7],> 6.30
14,O=C(C(=O)N1CCN(c2nnnn2C2CCCCC2)CC1)c1c[nH]c2c(-n3ccnn3)ncc(F)c12 [E-8],> 6.30
15,COc1cccc(-n2nnnc2N2CCN(C(=O)C(=O)c3c[nH]c4c(-n5ccnn5)ncc(F)c34)CC2)c1 [E-9],> 6.30
16,COc1ccc(-n2nnnc2N2CCN(C(=O)C(=O)c3c[nH]c4c(-n5ccnn5)ncc(F)c34)CC2)cc1 [E-10],< 6.30
17,N#Cc1cccc(-n2nnnc2N2CCN(C(=O)C(=O)c3c[nH]c4c(-n5ccnn5)ncc(F)c34)CC2)c1 [E-11],< 6.30
18,N#Cc1ccc(-n2nnnc2N2CCN(C(=O)C(=O)c3c[nH]c4c(-n5ccnn5)ncc(F)c34)CC2)cc1 [E-12],< 6.30
19,COc1cnc(-n2cnc(C)n2)c2[nH]cc(C(=O)C(=O)N3CCN(c4nnnn4-c4cccc(F)n4)CC3)c12 [E-12a],> 6.30
20,COc1cnc(-n2cnc(C)n2)c2[nH]cc(C(=O)C(=O)N3CCN(c4nnnn4-c4cccc(N)n4)CC3)c12 [E-12b],> 6.30
21,COc1cnc(-n2cnc(C)n2)c2[nH]cc(C(=O)C(=O)N3CCN(c4nnnn4-c4cccc(O)n4)CC3)c12 [E-12c],> 6.30

row,SMILES,pEC50
1,COc1cnc(-n2cnc(C)n2)c2[nH]cc(C(=O)C(=O)N3CCN(c4nnnn4-c4cccnn4)CC3)c12 [E-12d],> 6.30
2,"O=C(C(=O)N1CCN(c2ccnn2-c2ccccn2)CC1)c1c[nH]c2c(-n3ccnn3)ncc(F)c12 [E-14, 1-(4-fluoro-7-(1H-1,2,3-triazol-1-yl)-1H-pyrrolo[2,3-c]pyridinyl-3-yl)-2-(4-(1-(pyridin-2-yl)-1H-pyrazol-5-yl)piperazin-1-yl)ethane-1,2-dione]",> 6.30
3,"COc1cnc(-n2cnc(C)n2)c2[nH]cc(C(=O)C(=O)N3CCN(c4ccnn4-c4ccccn4)CC3)c12 [E-15, 1-(4-methoxy-7-(3-methyl-1H-1,2,4-triazol-1-yl)-1H-pyrrolo[2,3-c]pyridinyl-3-yl)-2-(4-(1-(pyridin-2-yl)-1H-pyrazol-5-yl)piperazin-1-yl)ethane-1,2-dione]",> 6.30
4,"O=C(C(=O)N1CCN(c2cn[nH]c2-c2ccccn2)CC1)c1c[nH]c2c(-n3ccnn3)ncc(F)c12 [E-16, 1-(4-fluoro-7-(1H-1,2,3-triazol-1-yl)-1H-pyrrolo[2,3-c]pyridinyl-3-yl)-2-(4-(3-(pyridin-2-yl)-1H-pyrazol-4-yl)piperazin-1-yl)ethane-1,2-dione]",> 6.30
5,"COc1cnc(-n2cnc(C)n2)c2[nH]cc(C(=O)C(=O)N3CCN(c4cn[nH]c4-c4ccccn4)CC3)c12 [E-17, 1-(4-methoxy-7-(3-methyl-1H-1,2,4-triazol-1-yl)-1H-pyrrolo[2,3-c]pyridinyl-3-yl)-2-(4-(3-(pyridin-2-yl)-1H-pyrazol-4-yl)piperazin-1-yl)ethane-1,2-dione]",> 6.30
6,CN1CCN(C(=O)c2cc(-c3ncc(F)c4c(C(=O)C(=O)N5CCN(c6nnnn6-c6ccccc6)CC5)c[nH]c34)n[nH]2)CC1 [F-1],> 6.30
7,CN1CCC(N(C)C(=O)c2cc(-c3ncc(F)c4c(C(=O)C(=O)N5CCN(c6nnnn6-c6ccccc6)CC5)c[nH]c34)n[nH]2)C1 (stereo not drawn) [F-2],> 6.30
8,O=C(C(=O)N1CCN(c2nnnn2-c2ccccc2)CC1)c1c[nH]c2c(-c3cc(C(=O)N4CC[C@@H](O)C4)[nH]n3)ncc(F)c12 [F-3],> 6.30
9,O=C(C(=O)N1CCN(c2nnnn2-c2ccccc2)CC1)c1c[nH]c2c(-c3cc(C(=O)N4CCN(C(=O)C5CCCO5)CC4)[nH]n3)ncc(F)c12 (stereo not drawn) [F-4],> 6.30
10,CC(=O)N1CCN(C(=O)c2cc(-c3ncc(F)c4c(C(=O)C(=O)N5CCN(c6nnnn6-c6ccccc6)CC5)c[nH]c34)n[nH]2)CC1 [F-5],> 6.30
11,O=C(C(=O)N1CCN(c2nnnn2-c2ccccc2)CC1)c1c[nH]c2c(-c3cc(C(=O)N4CCC[C@H]4CO)[nH]n3)ncc(F)c12 [F-6],> 6.30
12,O=C(C(=O)N1CCN(c2nnnn2-c2ccccc2)CC1)c1c[nH]c2c(-c3cc(C(=O)N4CCN(CCN5CCOCC5)CC4)[nH]n3)ncc(F)c12 [F-7],> 6.30
13,O=C(C(=O)N1CCN(c2nnnn2-c2ccccc2)CC1)c1c[nH]c2c(-c3cc(C(=O)N4CCN(CCO)CC4)[nH]n3)ncc(F)c12 [F-8],> 6.30
14,CCN(C)C(=O)c1cc(-c2ncc(F)c3c(C(=O)C(=O)N4CCN(c5nnnn5-c5ccccc5)CC4)c[nH]c23)n[nH]1 [F-9],> 6.30
15,O=C(C(=O)N1CCN(c2nnnn2-c2ccccc2)CC1)c1c[nH]c2c(-c3cc(C(=O)N4CCSC4)[nH]n3)ncc(F)c12 [F-10],> 6.30
16,O=C(C(=O)N1CCN(c2nnnn2-c2ccccc2)CC1)c1c[nH]c2c(-c3cc(C(=O)N4CCCC(O)C4)[nH]n3)ncc(F)c12 (stereo not drawn) [F-11],> 6.30
17,O=C(NCCCN1CCCC1=O)c1cc(-c2ncc(F)c3c(C(=O)C(=O)N4CCN(c5nnnn5-c5ccccc5)CC4)c[nH]c23)n[nH]1 [F-12],> 6.30
18,CN1CCCC1CCNC(=O)c1cc(-c2ncc(F)c3c(C(=O)C(=O)N4CCN(c5nnnn5-c5ccccc5)CC4)c[nH]c23)n[nH]1 (stereo not drawn) [F-13],> 6.30
19,CC(=O)NCCNC(=O)c1cc(-c2ncc(F)c3c(C(=O)C(=O)N4CCN(c5nnnn5-c5ccccc5)CC4)c[nH]c23)n[nH]1 [F-14],> 6.30
20,COCCN1CCN(C(=O)c2cc(-c3ncc(F)c4c(C(=O)C(=O)N5CCN(c6nnnn6-c6ccccc6)CC5)c[nH]c34)n[nH]2)CC1 [F-15],> 6.30
21,O=C(C(=O)N1CCN(c2nnnn2-c2ccccc2)CC1)c1c[nH]c2c(-c3cc(C(=O)N4CCC(O)CC4)[nH]n3)ncc(F)c12 [F-16],> 6.30
